According to patent US8003660B2, “Modulators of muscarinic receptors” (Vertex Pharmaceuticals Incorporated, priority 2006, dated 2011):
Where two headings read alike, the source gives them in different places.

How the values were obtained:
Assay type in all cases: cell-based
M1 muscarinic receptor = molecular target: T1, M1 muscarinic receptor (Homo sapiens, UniProt P11229); test: Functional mobilization of intracellular calcium (FLIPR) in CHO cells expressing M1; conditions: for M1 Activity: CHO cells expressing M1, FLIPR calcium assay; for Emax: CHO; for EC50: CHO cells expressing M1, FLIPR calcium
T1 construct: expressed in transfected cells; host or cells: CHO (M1-CHO)
T1 sequence (P11229 1-460): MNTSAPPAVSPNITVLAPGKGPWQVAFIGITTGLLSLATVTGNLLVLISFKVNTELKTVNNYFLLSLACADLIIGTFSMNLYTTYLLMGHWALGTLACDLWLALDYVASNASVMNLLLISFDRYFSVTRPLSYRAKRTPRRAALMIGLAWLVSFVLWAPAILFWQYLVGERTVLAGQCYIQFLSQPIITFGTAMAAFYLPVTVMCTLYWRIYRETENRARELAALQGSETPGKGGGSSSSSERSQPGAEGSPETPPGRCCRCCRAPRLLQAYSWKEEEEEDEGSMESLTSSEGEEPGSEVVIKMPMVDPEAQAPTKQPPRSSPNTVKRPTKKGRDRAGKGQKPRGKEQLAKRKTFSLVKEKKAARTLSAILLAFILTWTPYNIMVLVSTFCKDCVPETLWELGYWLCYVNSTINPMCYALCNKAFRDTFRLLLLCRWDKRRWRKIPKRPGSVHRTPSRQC
In short: (§1)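 Calcium flux is read on FLIPR over 60 sec at 488/540 nm in muscarinic-receptor CHO lines. Antagonist mode adds carbachol at EC80 after 15 min compound preincubation or with simultaneous co-application. Agonist mode adds compound alone. Cells carry Fluo-3 or Calcium 3 dye in probenecid-containing pH 7.4 buffer, 0.5% DMSO final.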

M2 muscarinic receptor = molecular target: T2, M2 muscarinic receptor (Homo sapiens, UniProt P08172); test: Functional mobilization of intracellular calcium (FLIPR) in CHO cells expressing M2; conditions: for M2 Activity: CHO cells expressing M2, FLIPR calcium assay; for Emax: CHO; for EC50: CHO cells expressing M2, FLIPR calcium
T2 construct: expressed in transfected cells; host or cells: CHO (M2-CHO)
T2 sequence (P08172 1-466): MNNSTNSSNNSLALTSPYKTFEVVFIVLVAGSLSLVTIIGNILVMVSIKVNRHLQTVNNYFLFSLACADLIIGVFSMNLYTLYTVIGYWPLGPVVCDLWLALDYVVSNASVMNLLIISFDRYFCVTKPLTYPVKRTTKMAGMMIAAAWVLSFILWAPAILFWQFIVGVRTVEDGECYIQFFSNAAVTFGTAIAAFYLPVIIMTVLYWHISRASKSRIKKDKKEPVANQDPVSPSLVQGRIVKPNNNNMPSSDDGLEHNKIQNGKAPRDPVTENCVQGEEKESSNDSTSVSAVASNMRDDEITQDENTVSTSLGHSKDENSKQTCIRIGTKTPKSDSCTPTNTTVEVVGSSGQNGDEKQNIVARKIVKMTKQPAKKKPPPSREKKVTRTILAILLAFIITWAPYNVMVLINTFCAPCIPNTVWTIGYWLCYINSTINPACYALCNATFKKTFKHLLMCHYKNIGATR
In short: as §1

M3 muscarinic receptor = molecular target: T3, M3 muscarinic receptor (Homo sapiens, UniProt P20309); test: Functional mobilization of intracellular calcium (FLIPR) in CHO cells expressing M3; conditions: for M3 Activity: CHO cells expressing M3, FLIPR calcium assay; for Emax: CHO; for EC50: CHO cells expressing M3, FLIPR calcium
T3 construct: expressed in transfected cells; host or cells: CHO (M3-CHO)
In short: as §1

M4 muscarinic receptor = molecular target: T4, M4 muscarinic receptor (Homo sapiens, UniProt P08173); test: Functional mobilization of intracellular calcium (FLIPR) in CHO cells expressing M4; conditions: for M4 Activity: CHO cells expressing M4, FLIPR calcium assay; for Emax: CHO; for EC50: CHO cells expressing M4, FLIPR calcium
T4 construct: expressed in transfected cells; host or cells: CHO (M4-CHO)
T4 sequence (P08173 1-479): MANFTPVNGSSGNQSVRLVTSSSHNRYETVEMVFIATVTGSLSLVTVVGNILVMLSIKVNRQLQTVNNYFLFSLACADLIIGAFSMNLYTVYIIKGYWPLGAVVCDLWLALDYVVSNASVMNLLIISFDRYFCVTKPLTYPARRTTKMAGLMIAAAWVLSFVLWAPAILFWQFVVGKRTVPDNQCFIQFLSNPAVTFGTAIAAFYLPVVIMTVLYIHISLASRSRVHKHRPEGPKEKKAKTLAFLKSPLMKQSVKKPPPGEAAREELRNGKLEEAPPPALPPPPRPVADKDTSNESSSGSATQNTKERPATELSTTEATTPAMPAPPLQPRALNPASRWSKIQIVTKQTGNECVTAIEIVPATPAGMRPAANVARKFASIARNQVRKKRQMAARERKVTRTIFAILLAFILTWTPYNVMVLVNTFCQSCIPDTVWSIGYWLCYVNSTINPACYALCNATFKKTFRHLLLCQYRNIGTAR
In short: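 Recombinant CHO cells loaded with Fluo-3 AM or Calcium 3 dye in pH 7.4 buffer containing 1 mM probenecid, with 0.5% final DMSO. For agonism, compound is added directly. For inhibition, it is preincubated 15 min, or co-applied, before carbachol at EC80. FLIPR fluorescence (ex 488, em 540 nm) is recorded for 60 s.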

[1] = 100% efficacy = maximum response obtained with the Carbachol control
[2] = 100% = maximum response obtained with the Carbachol control, read-out: M1 Efficacy
[3] = 100% = maximum response obtained with the Carbachol control, read-out: M2 Efficacy
[4] = 100% = maximum response obtained with the Carbachol control, read-out: M3 Efficacy
[5] = 100% = maximum response obtained with the Carbachol control, read-out: M4 Efficacy

T3 sequence (P20309 whole entry): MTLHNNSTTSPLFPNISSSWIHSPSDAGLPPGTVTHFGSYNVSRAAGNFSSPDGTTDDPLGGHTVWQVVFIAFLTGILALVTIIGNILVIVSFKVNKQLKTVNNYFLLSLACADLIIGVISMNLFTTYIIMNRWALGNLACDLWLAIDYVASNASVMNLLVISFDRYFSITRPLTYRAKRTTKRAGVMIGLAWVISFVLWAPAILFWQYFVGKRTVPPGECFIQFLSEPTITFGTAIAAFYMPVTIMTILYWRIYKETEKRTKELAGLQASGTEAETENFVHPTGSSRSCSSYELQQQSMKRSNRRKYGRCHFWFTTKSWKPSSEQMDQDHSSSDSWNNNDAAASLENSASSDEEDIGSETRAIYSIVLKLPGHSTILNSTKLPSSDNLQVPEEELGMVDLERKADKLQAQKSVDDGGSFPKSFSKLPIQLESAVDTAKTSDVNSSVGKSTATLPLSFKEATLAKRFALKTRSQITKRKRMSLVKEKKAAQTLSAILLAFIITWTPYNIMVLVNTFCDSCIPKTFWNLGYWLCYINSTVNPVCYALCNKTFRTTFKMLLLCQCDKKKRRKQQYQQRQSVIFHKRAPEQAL

Row | Compound | M1 Activity (M1 muscarinic receptor) | Emax (M1 muscarinic receptor; [1]) [%] | M2 Activity (M2 muscarinic receptor) | Emax (M2 muscarinic receptor; [1]) [%] | M3 Activity (M3 muscarinic receptor) | Emax (M3 muscarinic receptor; [1]) [%] | M4 Activity (M4 muscarinic receptor) | Emax (M4 muscarinic receptor; [1]) [%] | EC50 (M1 muscarinic receptor) [µM] | Emax (M1 muscarinic receptor; [2]) [%] | EC50 (M2 muscarinic receptor) [µM] | Emax (M2 muscarinic receptor; [3]) [%] | EC50 (M3 muscarinic receptor) [µM] | Emax (M3 muscarinic receptor; [4]) [%] | EC50 (M4 muscarinic receptor) [µM] | Emax (M4 muscarinic receptor; [5]) [%]
1 | CC(=O)N[C@H]1CC2(CCN(CCC(C)(C)C)CC2)c2ccccc21 [compound 244] | +++ (activity was measured to be less than 2.0 μM) | 25 to 100 | + (activity was measured to be greater than 5.0 μM) | < 25 | + (activity was measured to be greater than 5.0 μM) | < 25 | +++ (activity was measured to be less than 2.0 μM) | 25 to 100 | – | – | – | – | – | – | – | –
2 | CCN(C(=O)C(C)NC(C)=O)[C@H]1CCC2(CCN(CCC(C)(C)C)CC2)c2ccccc21 (some centres unmarked) [compound 34] | – | – | – | – | – | – | – | – | < 2 | 25 to 100 | 2 to 5 | < 25 | > 5 | < 25 | < 2 | 25 to 100
3 | CCN(C(=O)C1CCN(C(=O)OC)CC1)[C@H]1CCC2(CCN(CCC(C)(C)C)CC2)c2ccccc21 [compound 166] | – | – | – | – | – | – | – | – | > 5 | 25 to 100 | > 5 | < 25 | > 5 | < 25 | < 2 | 25 to 100
4 | CCOCC(=O)N[C@@H]1CCC2(CCN(CCC(C)(C)C)CC2)c2ccccc21 [compound 99] | – | – | – | – | – | – | – | – | > 5 | < 25 | > 5 | < 25 | > 5 | < 25 | < 2 | 25 to 100
5 | C[C@@H](C(=O)N[C@@H]1CCC2(CCN(CCC(C)(C)C)CC2)c2cc(F)ccc21)N1CCCC1=O [compound 22] | – | – | – | – | – | – | – | – | 2 to 5 | 25 to 100 | 2 to 5 | < 25 | > 5 | < 25 | < 2 | 25 to 100
6 | CC(=O)N[C@H]1CC2(CCN(CC(=O)N(C)C)CC2)c2ccccc21 [compound 289] | + (activity was measured to be greater than 5.0 μM) | < 25 | + (activity was measured to be greater than 5.0 μM) | < 25 | + (activity was measured to be greater than 5.0 μM) | < 25 | + (activity was measured to be greater than 5.0 μM) | < 25 | – | – | – | – | – | – | – | –
7 | C#CCNC(=O)CN1CCC2(CC1)C[C@H](NC(C)=O)c1ccccc12 [compound 262] | + (activity was measured to be greater than 5.0 μM) | < 25 | + (activity was measured to be greater than 5.0 μM) | < 25 | + (activity was measured to be greater than 5.0 μM) | < 25 | + (activity was measured to be greater than 5.0 μM) | < 25 | – | – | – | – | – | – | – | –
8 | Cn1cnc(C(=O)N[C@H]2CCC3(CCN(CCC(C)(C)C)CC3)c3ccccc32)c1 [compound 98] | – | – | – | – | – | – | – | – | < 2 | 25 to 100 | > 5 | < 25 | > 5 | < 25 | < 2 | 25 to 100
9 | CCN(C(=O)c1cccnc1)[C@@H]1CCC2(CCN(CCC(C)(C)C)CC2)c2ccccc21 [compound 111] | – | – | – | – | – | – | – | – | > 5 | < 25 | > 5 | < 25 | > 5 | < 25 | < 2 | 25 to 100
10 | CCN(C(=O)CC(F)(F)F)[C@H]1CCC2(CCN(CCC(C)(C)C)CC2)c2ccccc21 [compound 183] | – | – | – | – | – | – | – | – | 2 to 5 | 25 to 100 | > 5 | < 25 | > 5 | < 25 | < 2 | 25 to 100
